{
  "source": "patent US20200268829A1",
  "about": "“METHODS AND COMPOSITIONS FOR INHIBITING METASTASES OF AN ENDOTHELIN B RECEPTOR EXPRESSING CANCER” (ENB Therapeutics, Inc., priority 2020, published 2020)",
  "key": {"ETBR": {"biological_target": "T1, ETBR (Homo sapiens, UniProt P24530)", "T1 sequence (P24530 27-442)": "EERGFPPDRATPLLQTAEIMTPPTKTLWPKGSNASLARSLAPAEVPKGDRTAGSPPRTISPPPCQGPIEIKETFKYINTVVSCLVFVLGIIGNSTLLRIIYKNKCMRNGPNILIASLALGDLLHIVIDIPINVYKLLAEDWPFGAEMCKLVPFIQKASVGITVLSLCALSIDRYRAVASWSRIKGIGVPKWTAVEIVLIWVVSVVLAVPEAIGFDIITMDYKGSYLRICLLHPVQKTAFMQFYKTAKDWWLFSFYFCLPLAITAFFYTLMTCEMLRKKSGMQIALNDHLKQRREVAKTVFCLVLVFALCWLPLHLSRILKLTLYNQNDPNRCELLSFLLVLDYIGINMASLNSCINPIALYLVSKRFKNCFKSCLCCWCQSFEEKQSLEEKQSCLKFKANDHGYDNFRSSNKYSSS", "test": "ETBR antagonist potency (IC50, Ki); no method given", "type": "binding", "settings": "for IC50: for BQ788 printed with 'potent inhibitor of ETBR-related melanoma cell growth'"}, "[1]": {"tested_on": "melanoma cell lines overexpressing ETBR (brain metastases)", "test": "Mouse melanoma brain metastasis model, xenografts of melanoma cell lines overexpressing ETBR", "type": "in vivo, mice", "settings": "60 mg/kg/day", "method": "FIGS. 5A, 5B, 5C, 5D, and 5E. ETBR antagonist inhibits melanoma brain metastasis in mice. […] In this study, lentiviral vectors were used to overexpress ETBR in melanoma cell lines, which were in turn used to implant xenografts in mice.\nA192621 was administered at a dose of 60 mg/kg/day using a mouse melanoma model. […] In this study, lentiviral vectors were used to overexpress ETBR in melanoma cell lines, which were in turn used to implant xenografts in mice. In this study, lentiviral vectors were used to overexpress ETBR in melanoma cell lines, which were in turn used to implant xenografts in mice."}, "[2]": {"tested_on": "SKMEL28 human melanoma cells", "test": "SKMEL28 human melanoma xenograft in mice: tumor weight, lung metastases, apoptosis", "type": "in vivo", "method": "Mice were implanted with 1×10^6 SKMEL28 human melanoma cells. Tumors were established for 10 days until palpable then 120 ng (˜60 ug/kg) BQ788 dissolved in DMSO was injected IP 3×per week×6 weeks. Mice were then sacrificed and lungs harvested and tumors weighed. A 75% reduction in tumor weight was observed."}, "[3]": {"test": "Body weight under ascending intranasal BQ788 doses over 42 days", "type": "in vivo, athymic nude mice", "settings": "BQ788 alone, intranasally in 20% DMSO, ascending doses over 42 days", "method": "FIG. 9. ETAR antagonist and Niacinamide mitigate weight loss from BQ788. Six week old athymic nude mice were administered the ETBR antagonist BQ788 intranasally in 20% DMSO at the indicated ascending doses over a period of 42 days. One group was additionally administered the ETAR antagonist Macitentan orally at a dose of 5 mg/kg daily. The drinking water of these mice was supplemented with the B vitamin niacinamide at a concentration of 0.3 mg/mL. […] Co-administration of the ETAR antagonist Macitentan with niacinamide supplementation mitigated this weight loss. […] Co-administration of ETAR antagonists and niacinamide with ETBR antagonists mitigated the adverse effects of ETBR antagonists when administered for therapeutic purposes.\nSix week old athymic nude mice (n=3 per group) were administered the ETBR antagonist BQ788 intranasally in 20% DMSO at the indicated ascending doses over a period of 42 days. One group was additionally administered the ETAR antagonist Macitentan orally at a dose of 5 mg/kg daily. The drinking water of these mice was supplemented with the B vitamin niacinamide at a concentration of 0.3 mg/mL. […] Co-administration of the ETAR antagonist Macitentan with niacinamide supplementation mitigated this weight loss. […]"}, "[4]": {"tested_on": "A375 human melanoma cells", "test": "Subcutaneous A375 human melanoma xenograft", "type": "in vivo, Nu/J nude mice", "settings": "A375 sc xenograft; Dabrafenib 100 mg/Kg PO daily, alone or with BQ788 600 ng IP TIW; p<0.05", "method": "FIG. 7. BQ788 synergizes with Dabrafenib in vivo. A375 human melanoma cells were implanted subcutaneously into the rear flank of Nu/J nude mice and allowed to grow to 150 mm3-200 mm3 prior to randomization and initiation of treatment. The mice received the following treatments: (1) vehicle (n=8), (2) Dabrafenib 100 mg/Kg PO daily (n=5), and (3) Dabrafenib+BQ788 600 ng IP TIW (n=5).\nA375 human melanoma cells (3×10^6) were implanted subcutaneously into the rear flank of Nu/J nude mice and allowed to grow to 150 mm3-200 mm3 prior to randomization and initiation of treatment. The treatment groups were as follows: (1) vehicle (n=8), Dabrafenib 100 mg/Kg PO daily (n=5), (2) Dabrafenib+BQ788 600 ng IP 3×per week (n=5)."}},
  "note": "“Also recorded” adds a separate entry of the source.",
  "data": [
    {"compound": "CCCOc1ccc([C@H]2[C@H](C(=O)O)[C@@H](c3ccc4c(c3)OCO4)CN2CC(=O)Nc2c(CC)cccc2CC)cc1", "note": "[A192621, (2R,3R,4S)-4-(1,3-benzodioxol-5-yl)-1-[2-(2,6-diethylanilino)-2-oxoethyl]-2-(4-propoxyphenyl)pyrrolidine-3-carboxylic acid]", "values": [
      {"measurement": "Ki", "setting": "ETBR", "result": 8.8, "unit": "nM"},
      {"measurement": "IC50", "setting": "ETBR", "result": 4.5, "unit": "nM"},
      {"measurement": "CNS melanoma tumors", "setting": "[1]", "result": "shrinks CNS melanoma tumors"},
      {"measurement": "brain melanoma metastases", "setting": "[1]", "result": "shrinks brain melanoma metastases"},
      {"measurement": "survival", "setting": "[1]", "result": "increases survival"}
    ]},
    {"compound": "CCCC[C@@H](NC(=O)[C@@H](Cc1cn(C(=O)OC)c2ccccc12)NC(=O)[C@H](CC(C)(C)C)NC(=O)N1[C@H](C)CCC[C@@H]1C)C(=O)O", "note": "[BQ788]", "values": [
      {"measurement": "Ki", "setting": "ETBR", "result": 17.8, "unit": "nM"},
      {"measurement": "IC50", "setting": "ETBR", "result": 1.2, "unit": "nM"},
      {"measurement": "reduction in tumor weight", "setting": "[2]; SKMEL28 xenograft mice, 120 ng (~60 ug/kg) BQ788 in DMSO IP 3x per week x 6 weeks", "result": 75, "unit": "%"},
      {"measurement": "clearance of lung metastases", "setting": "[2]; SKMEL28 xenograft mice, 120 ng (~60 ug/kg) BQ788 in DMSO IP 3x per week x 6 weeks, vs control mice", "result": "> 95", "unit": "%"},
      {"measurement": "apoptosis in melanoma tumor cells", "setting": "[2]; melanoma tumor cells", "result": "induces apoptosis"},
      {"measurement": "average weight loss relative to baseline body weight by the end of the study", "setting": "[3]", "result": 5, "unit": "%"}
    ]},
    {"compound": "CC(C)(C)c1nc(-c2cccc(NS(=O)(=O)c3c(F)cccc3F)c2F)c(-c2ccnc(N)n2)s1", "note": "[Dabrafenib]", "values": [
      {"measurement": "tumor growth", "setting": "[4]", "result": "retarded the growth of tumors; also recorded: retarded tumor growth"}
    ]}
  ]
}
